# Assay results taken from PubChem BioAssay AID256 (DTP/NCI, 2004).
# Values joined by “and” are separate entries in the source; they are usually repeats but may differ in a detail not shown here. Equal values may be shown once. Inconclusive results and toxic doses are left out.
# Test system: CD2F1 mice, L1210 leukemia ip, survival T/C
# Test: NCI In Vivo Anticancer Drug Screen. Data for tumor model L1210 Leukemia (intraperitoneal) in CD2F1 (CDF1) mice
# Settings: higher = longer survival
# Summary of the method: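 Each value reflects a quotient of treated over vehicle control outcomes in mice with a transplanted tumor.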
# [1] = endpoint: mean survival time, dose: 100.0 mg/kg/injection, schedule: Q01DX001 (ip), vehicle: saline
# [2] = endpoint: mean survival time, dose: 200.0 mg/kg/injection, schedule: Q01DX001 (ip), vehicle: saline
# [3] = endpoint: mean survival time, dose: 400.0 mg/kg/injection, schedule: Q01DX001 (ip), vehicle: saline
# [4] = endpoint: mean survival time, dose: 50.0 mg/kg/injection, schedule: Q04DX002 (ip), vehicle: saline with Tween-80
# [5] = endpoint: mean survival time, dose: 100.0 mg/kg/injection, schedule: Q04DX002 (ip), vehicle: saline with Tween-80
# [6] = endpoint: mean survival time, dose: 100.0 mg/kg/injection, schedule: Q04DX003 (ip), vehicle: saline with Tween-80
# [7] = endpoint: mean survival time, dose: 200.0 mg/kg/injection, schedule: Q04DX002 (ip), vehicle: saline with Tween-80
# [8] = endpoint: mean survival time, dose: 200.0 mg/kg/injection, schedule: Q04DX003 (ip), vehicle: saline with Tween-80
# [9] = endpoint: mean survival time, dose: 100.0 mg/kg/injection, schedule: Q01DX009 (ip), vehicle: saline with Tween-80
# [10] = endpoint: mean survival time, dose: 200.0 mg/kg/injection, schedule: Q01DX009 (ip), vehicle: saline with Tween-80
# [11] = endpoint: mean survival time, dose: 400.0 mg/kg/injection, schedule: Q01DX009 (ip), vehicle: saline with Tween-80
# [12] = endpoint: mean survival time, dose: 400.0 mg/kg/injection, schedule: Q04DX003 (ip), vehicle: saline with Tween-80
# [13] = endpoint: mean survival time, dose: 50.0 mg/kg/injection, schedule: Q01DX009 (ip), vehicle: Klucel (hydroxypropylcellulose) (HPC)
# [14] = endpoint: mean survival time, dose: 100.0 mg/kg/injection, schedule: Q01DX009 (ip), vehicle: Klucel (hydroxypropylcellulose) (HPC)
# [15] = endpoint: mean survival time, dose: 25.0 mg/kg/injection, schedule: Q01DX009 (ip), vehicle: saline with Tween-80
smiles,measurement,setting,value
O=C(O)CCC(O)C(=O)O.[NH-]C1CCCCC1[NH-].[Pt+2] (stereo not given),T/C,"endpoint: median survival time, dose: 3.12 mg/kg/injection, schedule: Q04DX003 (ip), vehicle: saline",120 % of control and 110 % of control
same,T/C,"endpoint: median survival time, dose: 6.25 mg/kg/injection, schedule: Q04DX003 (ip), vehicle: saline",120 % of control
same,T/C,"endpoint: median survival time, dose: 25.0 mg/kg/injection, schedule: Q04DX003 (ip), vehicle: saline",158 % of control
same,T/C,"endpoint: median survival time, dose: 50.0 mg/kg/injection, schedule: Q04DX003 (ip), vehicle: saline",170 % of control and 186 % of control
same,T/C,"endpoint: median survival time, dose: 100.0 mg/kg/injection, schedule: Q04DX003 (ip), vehicle: saline",365 % of control
C(=C\c1nnnn1C12CC3CC(CC(C3)C1)C2)/c1ccccc1,T/C,[1],104 % of control
same,T/C,[2],104 % of control
same,T/C,[3],96 % of control
N[N+]#COC1C(C(=O)NN)C1C(=O)NN (stereo not given),T/C,"endpoint: median survival time, dose: 50.0 mg/kg/injection, schedule: Q04DX002 (ip), vehicle: saline with Tween-80",94 % of control
same,T/C,"endpoint: median survival time, dose: 100.0 mg/kg/injection, schedule: Q04DX002 (ip), vehicle: saline with Tween-80",105 % of control
same,T/C,"endpoint: median survival time, dose: 400.0 mg/kg/injection, schedule: Q04DX002 (ip), vehicle: saline with Tween-80",105 % of control
CC(C)COC(=N)c1ccccc1C1(O)CCCCC1,T/C,[4],91 % of control
same,T/C,[5],88 % of control
same,T/C,[6],98 % of control
same,T/C,[7],100 % of control
same,T/C,[8],92 % of control
CCOC(=O)C(C)C(C)=O (stereo not given),T/C,[1],104 % of control
same,T/C,[2],98 % of control
same,T/C,[3],101 % of control
COC(CCN1C(=O)c2ccccc2C1=O)C(Br)C(=O)O (stereo not given),T/C,[9],92 % of control
same,T/C,[6],101 % of control
same,T/C,[10],92 % of control
same,T/C,[8],97 % of control
same,T/C,[11],89 % of control
same,T/C,[12],98 % of control
COc1cc(/C=N/NC(=O)CN(C)C)cc(OC)c1N(CCCl)CCCl,T/C,[13],122 % of control
same,T/C,[14],113 % of control
COc1ccc2ccccc2c1-c1c(OC)ccc2ccccc12,T/C,"endpoint: mean survival time, dose: 100.0 mg/kg/injection, schedule: Q01DX001 (ip), vehicle: saline with Tween-80",100 % of control
same,T/C,"endpoint: mean survival time, dose: 200.0 mg/kg/injection, schedule: Q01DX001 (ip), vehicle: saline with Tween-80",103 % of control
same,T/C,"endpoint: mean survival time, dose: 400.0 mg/kg/injection, schedule: Q01DX001 (ip), vehicle: saline with Tween-80",100 % of control
CCn1c(-c2ccc(OC(C)=O)cc2)c(C)c2cc(OC(C)=O)ccc21,T/C,"endpoint: median survival time, dose: 25.0 mg/kg/injection, schedule: Q01DX009 (ip), vehicle: Klucel (hydroxypropylcellulose) (HPC)",107 % of control
same,T/C,"endpoint: median survival time, dose: 50.0 mg/kg/injection, schedule: Q01DX009 (ip), vehicle: Klucel (hydroxypropylcellulose) (HPC)",102 % of control
same,T/C,"endpoint: median survival time, dose: 100.0 mg/kg/injection, schedule: Q01DX009 (ip), vehicle: Klucel (hydroxypropylcellulose) (HPC)",96 % of control
same,T/C,"endpoint: median survival time, dose: 200.0 mg/kg/injection, schedule: Q01DX009 (ip), vehicle: Klucel (hydroxypropylcellulose) (HPC)",102 % of control
same,T/C,"endpoint: median survival time, dose: 400.0 mg/kg/injection, schedule: Q01DX009 (ip), vehicle: Klucel (hydroxypropylcellulose) (HPC)",90 % of control
NC(CS(=O)c1ccc(Cl)cc1)C(=O)O (stereo not given),T/C,"endpoint: mean survival time, dose: 6.25 mg/kg/injection, schedule: Q01DX009 (ip), vehicle: saline with Tween-80",90 % of control
same,T/C,"endpoint: mean survival time, dose: 12.5 mg/kg/injection, schedule: Q01DX009 (ip), vehicle: saline with Tween-80",94 % of control
same,T/C,[15],96 % of control
CCCCCOC(=O)CCCc1ccc(N(CCCl)CCCl)cc1,T/C,"endpoint: mean survival time, dose: 12.5 mg/kg/injection, schedule: Q01DX009 (ip), vehicle: saline",118 % of control
same,T/C,"endpoint: mean survival time, dose: 100.0 mg/kg/injection, schedule: Q01DX009 (ip), vehicle: saline",88 % of control
COc1c(O)cc2c(c1OC)-c1ccc(SC)c(=O)cc1C(NC(C)=O)CC2 (stereo not given),T/C,"endpoint: median survival time, dose: 0.06 mg/kg/injection, schedule: Q01DX009 (ip), vehicle: Klucel (hydroxypropylcellulose) (HPC)",110 % of control
same,T/C,"endpoint: median survival time, dose: 0.12 mg/kg/injection, schedule: Q01DX009 (ip), vehicle: Klucel (hydroxypropylcellulose) (HPC)",110 % of control
same,T/C,"endpoint: median survival time, dose: 0.25 mg/kg/injection, schedule: Q01DX009 (ip), vehicle: Klucel (hydroxypropylcellulose) (HPC)",110 % of control
same,T/C,"endpoint: median survival time, dose: 0.31 mg/kg/injection, schedule: Q01DX009 (ip), vehicle: DMSO",113 % of control
same,T/C,"endpoint: median survival time, dose: 0.31 mg/kg/injection, schedule: Q01DX009 (ip), vehicle: Klucel (hydroxypropylcellulose) (HPC)",118 % of control
same,T/C,"endpoint: median survival time, dose: 0.5 mg/kg/injection, schedule: Q01DX009 (ip), vehicle: Klucel (hydroxypropylcellulose) (HPC)",121 % of control
same,T/C,"endpoint: median survival time, dose: 0.63 mg/kg/injection, schedule: Q01DX009 (ip), vehicle: DMSO",124 % of control
same,T/C,"endpoint: median survival time, dose: 1.0 mg/kg/injection, schedule: Q01DX009 (ip), vehicle: Klucel (hydroxypropylcellulose) (HPC)",105 % of control
same,T/C,"endpoint: median survival time, dose: 2.5 mg/kg/injection, schedule: Q01DX009 (oral), vehicle: DMSO",108 % of control
same,T/C,"endpoint: median survival time, dose: 5.0 mg/kg/injection, schedule: Q01DX005 (ip), vehicle: Klucel (hydroxypropylcellulose) (HPC)",164 % of control
same,T/C,"endpoint: median survival time, dose: 5.0 mg/kg/injection, schedule: Q01DX009 (ip), vehicle: DMSO",172 % of control
same,T/C,"endpoint: median survival time, dose: 5.0 mg/kg/injection, schedule: Q01DX009 (oral), vehicle: DMSO",107 % of control
same,T/C,"endpoint: median survival time, dose: 10.0 mg/kg/injection, schedule: Q01DX009 (ip), vehicle: DMSO",165 % of control
same,T/C,"endpoint: median survival time, dose: 10.0 mg/kg/injection, schedule: Q01DX009 (oral), vehicle: DMSO",116 % of control
same,T/C,"endpoint: median survival time, dose: 20.0 mg/kg/injection, schedule: Q01DX005 (ip), vehicle: Klucel (hydroxypropylcellulose) (HPC)",158 % of control
same,T/C,"endpoint: median survival time, dose: 20.0 mg/kg/injection, schedule: Q01DX009 (oral), vehicle: DMSO",109 % of control
same,T/C,"endpoint: median survival time, dose: 40.0 mg/kg/injection, schedule: Q01DX009 (oral), vehicle: DMSO",107 % of control
CS(=O)(=O)Nc1ccc(NS(C)(=O)=O)cc1,T/C,[6],98 % of control
same,T/C,[8],102 % of control
same,T/C,[12],97 % of control
Cc1c2ccccc2cc2cccc[n+]12,T/C,"endpoint: mean survival time, dose: 2.5 mg/kg/injection, schedule: Q01DX009 (ip), vehicle: saline",95 % of control and 100 % of control
same,T/C,"endpoint: mean survival time, dose: 5.0 mg/kg/injection, schedule: Q01DX009 (ip), vehicle: saline",95 % of control and 101 % of control
same,T/C,"endpoint: mean survival time, dose: 10.0 mg/kg/injection, schedule: Q01DX009 (ip), vehicle: saline",102 % of control and 110 % of control
same,T/C,"endpoint: mean survival time, dose: 20.0 mg/kg/injection, schedule: Q01DX009 (ip), vehicle: saline",97 % of control and 106 % of control
CC(=O)OC(Cc1ccc(Cl)cc1)c1ccc(Cl)cc1 (stereo not given),T/C,[4],96 % of control
same,T/C,[5],96 % of control
same,T/C,[7],90 % of control
same,T/C,"endpoint: mean survival time, dose: 400.0 mg/kg/injection, schedule: Q04DX002 (ip), vehicle: saline with Tween-80",90 % of control
CC(=O)c1cccc2cccc([N+](=O)[O-])c12,T/C,[9],101 % of control
same,T/C,[6],102 % of control
same,T/C,[10],102 % of control
same,T/C,[8],102 % of control
same,T/C,[11],102 % of control
same,T/C,[12],100 % of control
O=C(O)c1cc(=O)cc(C(=O)O)o1,T/C,[15],91 % of control
same,T/C,[13],91 % of control
same,T/C,"endpoint: mean survival time, dose: 50.0 mg/kg/injection, schedule: Q01DX009 (ip), vehicle: saline with Tween-80",90 % of control
same,T/C,[14],91 % of control
same,T/C,[9],95 % of control
O=C1CCCCCC1c1ccccc1 (stereo not given),T/C,[9],102 % of control
same,T/C,[10],102 % of control
same,T/C,[11],98 % of control
CN(C)/C(N)=N\c1nc(O)cc(=O)[nH]1,T/C,[1],102 % of control
same,T/C,[2],96 % of control
same,T/C,[3],96 % of control
